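Exposure lasted 48 hours, with cells grown in 96-well plates and compounds tested at five concentrations. TGI marks complete inhibition of growth.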
Tests used:
Test in all cases: NCI tumour cell line growth inhibition, 48 h
786-0 renal = tested on: 786-0 renal
A498 renal = tested on: A498 renal
A549 NSCLC = tested on: A549 NSCLC
ACHN renal = tested on: ACHN renal
CAKI-1 renal = tested on: CAKI-1 renal
CCRF-CEM leukemia = tested on: CCRF-CEM leukemia
COLO 205 colon = tested on: COLO 205 colon
DLD-1 colon = tested on: DLD-1 colon
DMS 114 small cell lung = tested on: DMS 114 small cell lung
DMS 273 small cell lung = tested on: DMS 273 small cell lung
EKVX NSCLC = tested on: EKVX NSCLC
HCC-2998 colon = tested on: HCC-2998 colon
HCT-116 colon = tested on: HCT-116 colon
HL-60(TB) leukemia = tested on: HL-60(TB) leukemia
HOP-18 NSCLC = tested on: HOP-18 NSCLC
HOP-62 NSCLC = tested on: HOP-62 NSCLC
HOP-92 NSCLC = tested on: HOP-92 NSCLC
IGROV1 ovarian = tested on: IGROV1 ovarian
KM12 colon = tested on: KM12 colon
KM20L2 colon = tested on: KM20L2 colon
LOX IMVI melanoma = tested on: LOX IMVI melanoma
LXFL 529 NSCLC = tested on: LXFL 529 NSCLC
M14 melanoma = tested on: M14 melanoma
M19-MEL melanoma = tested on: M19-MEL melanoma
MALME-3M melanoma = tested on: MALME-3M melanoma
MOLT-4 leukemia = tested on: MOLT-4 leukemia
NCI-H226 lung = tested on: NCI-H226 lung
NCI-H23 lung = tested on: NCI-H23 lung
NCI-H460 lung = tested on: NCI-H460 lung
NCI-H522 lung = tested on: NCI-H522 lung
OVCAR-3 ovarian = tested on: OVCAR-3 ovarian
OVCAR-4 ovarian = tested on: OVCAR-4 ovarian
OVCAR-5 ovarian = tested on: OVCAR-5 ovarian
OVCAR-8 ovarian = tested on: OVCAR-8 ovarian
RPMI-8226 leukemia = tested on: RPMI-8226 leukemia
RXF 393 renal = tested on: RXF 393 renal
RXF-631 renal = tested on: RXF-631 renal
SF-268 CNS = tested on: SF-268 CNS
SF-295 CNS = tested on: SF-295 CNS
SF-539 CNS = tested on: SF-539 CNS
SK-MEL-2 melanoma = tested on: SK-MEL-2 melanoma
SK-MEL-28 melanoma = tested on: SK-MEL-28 melanoma
SK-MEL-5 melanoma = tested on: SK-MEL-5 melanoma
SK-OV-3 ovarian = tested on: SK-OV-3 ovarian
SN12C renal = tested on: SN12C renal
SNB-19 CNS = tested on: SNB-19 CNS
SNB-75 CNS = tested on: SNB-75 CNS
SNB-78 CNS = tested on: SNB-78 CNS
SW-620 colon = tested on: SW-620 colon
TK-10 renal = tested on: TK-10 renal
U251 CNS = tested on: U251 CNS
UACC-257 melanoma = tested on: UACC-257 melanoma
UACC-62 melanoma = tested on: UACC-62 melanoma
UO-31 renal = tested on: UO-31 renal
XF 498 CNS = tested on: XF 498 CNS
HCT-15 colon = tested on: HCT-15 colon
K-562 leukemia = tested on: K-562 leukemia
SR leukemia = tested on: SR leukemia
HT29 colon = tested on: HT29 colon
MCF7 breast = tested on: MCF7 breast
NCI/ADR-RES ovarian = tested on: NCI/ADR-RES ovarian
P388 leukemia = tested on: P388 leukemia
P388/ADR leukemia = tested on: P388/ADR leukemia
SN12K1 renal = tested on: SN12K1 renal

## Cc1ccc(-c2nnc3s/c(=C\c4ccc(N(C)C)cc4)c(=O)n23)cc1
786-0 renal
  TGI: > 100 µM
A498 renal
  TGI: > 100 µM
A549 NSCLC
  TGI: > 100 µM
ACHN renal
  TGI: > 100 µM
CAKI-1 renal
  TGI: > 100 µM
CCRF-CEM leukemia
  TGI: > 100 µM
COLO 205 colon
  TGI: > 100 µM
DLD-1 colon
  TGI: > 100 µM
DMS 114 small cell lung
  TGI: > 100 µM
DMS 273 small cell lung
  TGI: > 100 µM
EKVX NSCLC
  TGI: > 100 µM
HCC-2998 colon
  TGI: > 100 µM
HCT-116 colon
  TGI: > 100 µM
HL-60(TB) leukemia
  TGI: > 100 µM
HOP-18 NSCLC
  TGI: > 100 µM
HOP-62 NSCLC
  TGI: > 100 µM
HOP-92 NSCLC
  TGI: > 100 µM
IGROV1 ovarian
  TGI: > 100 µM
KM12 colon
  TGI: > 100 µM
KM20L2 colon
  TGI: > 100 µM
LOX IMVI melanoma
  TGI: > 100 µM
LXFL 529 NSCLC
  TGI: > 100 µM
M14 melanoma
  TGI: > 100 µM
M19-MEL melanoma
  TGI: > 100 µM
MALME-3M melanoma
  TGI: > 100 µM
MOLT-4 leukemia
  TGI: > 100 µM
NCI-H226 lung
  TGI: > 100 µM
NCI-H23 lung
  TGI: > 100 µM
NCI-H460 lung
  TGI: > 100 µM
NCI-H522 lung
  TGI: > 100 µM
OVCAR-3 ovarian
  TGI: > 100 µM
OVCAR-4 ovarian
  TGI: > 100 µM
OVCAR-5 ovarian
  TGI: > 100 µM
OVCAR-8 ovarian
  TGI: > 100 µM
RPMI-8226 leukemia
  TGI: > 100 µM
RXF 393 renal
  TGI: > 100 µM
RXF-631 renal
  TGI: > 100 µM
SF-268 CNS
  TGI: > 100 µM
SF-295 CNS
  TGI: > 100 µM
SF-539 CNS
  TGI: > 100 µM
SK-MEL-2 melanoma
  TGI: > 100 µM
SK-MEL-28 melanoma
  TGI: > 100 µM
SK-MEL-5 melanoma
  TGI: > 100 µM
SK-OV-3 ovarian
  TGI: > 100 µM
SN12C renal
  TGI: > 100 µM
SNB-19 CNS
  TGI: > 100 µM
SNB-75 CNS
  TGI: > 100 µM
SNB-78 CNS
  TGI: > 100 µM
SW-620 colon
  TGI: > 100 µM
TK-10 renal
  TGI: > 100 µM
U251 CNS
  TGI: > 100 µM
UACC-257 melanoma
  TGI: 77.5 µM
UACC-62 melanoma
  TGI: > 100 µM
UO-31 renal
  TGI: > 100 µM
XF 498 CNS
  TGI: > 100 µM

## COc1cccc(NC(=O)CC(=O)NN2C(=O)/C(=C/c3ccc(N(CCC#N)CCC#N)cc3)N=C2c2cc([N+](=O)[O-])ccc2Cl)c1
A549 NSCLC
  TGI: > 100 µM
ACHN renal
  TGI: > 100 µM
CAKI-1 renal
  TGI: > 100 µM
CCRF-CEM leukemia
  TGI: > 100 µM
COLO 205 colon
  TGI: > 100 µM
DLD-1 colon
  TGI: > 100 µM
DMS 114 small cell lung
  TGI: > 100 µM
DMS 273 small cell lung
  TGI: > 100 µM
EKVX NSCLC
  TGI: > 100 µM
HCC-2998 colon
  TGI: > 100 µM
HCT-116 colon
  TGI: > 100 µM
HCT-15 colon
  TGI: > 100 µM
HOP-62 NSCLC
  TGI: > 100 µM
HOP-92 NSCLC
  TGI: > 100 µM
IGROV1 ovarian
  TGI: > 100 µM
K-562 leukemia
  TGI: > 100 µM
KM12 colon
  TGI: > 100 µM
KM20L2 colon
  TGI: > 100 µM
LOX IMVI melanoma
  TGI: > 100 µM
LXFL 529 NSCLC
  TGI: > 100 µM
M14 melanoma
  TGI: > 100 µM
M19-MEL melanoma
  TGI: > 100 µM
MALME-3M melanoma
  TGI: > 100 µM
MOLT-4 leukemia
  TGI: > 100 µM
NCI-H226 lung
  TGI: 30.1 µM
NCI-H23 lung
  TGI: > 100 µM
NCI-H522 lung
  TGI: > 100 µM
OVCAR-3 ovarian
  TGI: > 100 µM
OVCAR-4 ovarian
  TGI: > 100 µM
OVCAR-5 ovarian
  TGI: 72.3 µM
OVCAR-8 ovarian
  TGI: > 100 µM
RPMI-8226 leukemia
  TGI: > 100 µM
RXF 393 renal
  TGI: > 100 µM
RXF-631 renal
  TGI: > 100 µM
SF-268 CNS
  TGI: > 100 µM
SF-295 CNS
  TGI: > 100 µM
SF-539 CNS
  TGI: > 100 µM
SK-MEL-2 melanoma
  TGI: > 100 µM
SK-MEL-28 melanoma
  TGI: > 100 µM
SK-MEL-5 melanoma
  TGI: > 100 µM
SK-OV-3 ovarian
  TGI: > 100 µM
SN12C renal
  TGI: > 100 µM
SNB-19 CNS
  TGI: > 100 µM
SNB-78 CNS
  TGI: > 100 µM
SR leukemia
  TGI: > 100 µM
SW-620 colon
  TGI: > 100 µM
TK-10 renal
  TGI: > 100 µM
U251 CNS
  TGI: > 100 µM
UACC-62 melanoma
  TGI: > 100 µM
UO-31 renal
  TGI: > 100 µM
XF 498 CNS
  TGI: > 100 µM

## O=C(NC(Cc1ccc(Cl)cc1)C(=O)O)c1ccc(I)cc1 (centres undefined)
A498 renal
  TGI: > 100 µM
A549 NSCLC
  TGI: > 100 µM
CAKI-1 renal
  TGI: > 100 µM
CCRF-CEM leukemia
  TGI: > 100 µM
COLO 205 colon
  TGI: > 100 µM
DLD-1 colon
  TGI: > 100 µM
DMS 273 small cell lung
  TGI: > 100 µM
HCT-116 colon
  TGI: > 100 µM
HCT-15 colon
  TGI: > 100 µM
HL-60(TB) leukemia
  TGI: > 100 µM
HOP-18 NSCLC
  TGI: > 100 µM
HOP-62 NSCLC
  TGI: > 100 µM
HOP-92 NSCLC
  TGI: > 100 µM
HT29 colon
  TGI: > 100 µM
IGROV1 ovarian
  TGI: > 100 µM
K-562 leukemia
  TGI: > 100 µM
KM12 colon
  TGI: > 100 µM
LOX IMVI melanoma
  TGI: > 100 µM
M19-MEL melanoma
  TGI: > 100 µM
MALME-3M melanoma
  TGI: > 100 µM
MCF7 breast
  TGI: > 100 µM
MOLT-4 leukemia
  TGI: > 100 µM
NCI-H226 lung
  TGI: > 100 µM
NCI-H23 lung
  TGI: > 100 µM
NCI-H460 lung
  TGI: > 100 µM
NCI-H522 lung
  TGI: > 100 µM
NCI/ADR-RES ovarian
  TGI: > 100 µM
OVCAR-3 ovarian
  TGI: > 100 µM
OVCAR-4 ovarian
  TGI: > 100 µM
OVCAR-5 ovarian
  TGI: > 100 µM
OVCAR-8 ovarian
  TGI: > 100 µM
P388 leukemia
  TGI: > 100 µM
P388/ADR leukemia
  TGI: > 100 µM
RPMI-8226 leukemia
  TGI: > 100 µM
RXF 393 renal
  TGI: > 100 µM
SF-268 CNS
  TGI: > 100 µM
SF-295 CNS
  TGI: > 100 µM
SF-539 CNS
  TGI: > 100 µM
SK-MEL-2 melanoma
  TGI: > 100 µM
SK-MEL-28 melanoma
  TGI: > 100 µM
SK-MEL-5 melanoma
  TGI: > 100 µM
SK-OV-3 ovarian
  TGI: > 100 µM
SN12C renal
  TGI: > 100 µM
SN12K1 renal
  TGI: > 100 µM
SNB-19 CNS
  TGI: > 100 µM
SNB-75 CNS
  TGI: > 100 µM
SNB-78 CNS
  TGI: > 100 µM
SW-620 colon
  TGI: > 100 µM
U251 CNS
  TGI: > 100 µM
UACC-257 melanoma
  TGI: > 100 µM
UACC-62 melanoma
  TGI: > 100 µM
UO-31 renal
  TGI: > 100 µM
XF 498 CNS
  TGI: > 100 µM
